# Source: patent publication US20240051952A1, “HMOX1 INDUCERS” (Mitobridge Inc., priority 2019, published 2024)
# System: Human Heme Oxygenase-1 (HMOX-1)
# Assay: ELISA assay to measure human heme oxygenase-1 (HMOX-1) in HepG2 lysate
# Assay type: cell-based
# Details: fold change of human HMOX1 protein levels relative to DMSO control, HepG2
# Procedure, shortened: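 HO-1 protein quantified by chemiluminescent sandwich ELISA against a 2-fold standard series starting at 20 ng/ml. Samples were 1:20-diluted HepG2 lysates made in Triton X-100/EDTA buffer with protease inhibitors. Capture antibody coated at 8 μg/ml, detection antibody used at 200 ng/ml, room-temperature (20 °C) steps.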
row,SMILES,Maximum Fold induction
1,"Cn1c(Nc2nc3ccccc3o2)nc2cc(/C(=N/O)C(F)(F)F)ccc21 [Example 140, (Z)-1-(2-(benzo[d]oxazol-2-ylamino)-1-methyl-1H-benzo[d]imidazol-5-yl)-2,2,2-trifluoroethan-1-one oxime]",19
2,"COCCNC(=O)c1ccc2c(c1)nc(Nc1nc3ccc(F)cc3o1)n2C [Example 69, 2-((6-fluorobenzo[d]oxazol-2-yl)amino)-N-(2-methoxyethyl)-1-methyl-1H-benzo[d]imidazole-5-carboxamide]",13-36
3,"Cn1c(Nc2nc3ccc(OC(F)F)cc3o2)nc2cc(C(=O)NCCO)ccc21 [Example 64, 2-((6-(difluoromethoxy)benzo[d]oxazol-2-yl)amino)-N-(2-hydroxyethyl)-1-methyl-1H-benzo[d]imidazole-5-carboxamide]",11-18
4,"COCCNC(=O)c1ccc2c(c1)nc(Nc1nc3ccccc3o1)n2C [Example 1i, 2-(benzo[d]oxazol-2-ylamino)-N-(2-methoxyethyl)-1-methyl-1H-benzo[d]imidazole-5-carboxamide]",6-15
5,"CN1CCC(n2c(Nc3nc4ccc(OC(F)(F)F)cc4s3)nc3cc(C(=O)O)ccc32)CC1 [Example 3d, 1-(1-methylpiperidin-4-yl)-2-((6-(trifluoromethoxy)benzo[d]thiazol-2-yl)amino)-1H-benzo[d]imidazole-5-carboxylic acid]",13
6,"COCCNC(=O)c1ccc2c(c1)nc(Nc1nc3ncccc3o1)n2C [Example 112, N-(2-methoxyethyl)-1-methyl-2-(oxazolo[4,5-b]pyridin-2-ylamino)-1H-benzo[d]imidazole-5-carboxamide]",15
7,"Cn1c(Nc2nc3ccc(OC(F)(F)F)cc3o2)nc2cc(C(=O)NC3COC3)ccc21 [Example 51, 1-methyl-N-(oxetan-3-yl)-2-((6-(trifluoromethoxy)benzo[d]oxazol-2-yl)amino)-1H-benzo[d]imidazole-5-carboxamide]",30-57
8,"Cn1c(Nc2nc3ccc(C(F)(F)F)cc3o2)nc2cc(C(=O)NCCOCCO)ccc21 [Example 34, N-(2-(2-hydroxyethoxy)ethyl)-1-methyl-2-((6-(trifluoromethyl)benzo[d]oxazol-2-yl)amino)-1H-benzo[d]imidazole-5-carboxamide]",31-36
9,"Cn1c(Nc2nc3ncccc3o2)nc2cc(C(=O)O)ccc21 [Example 111, 1-methyl-2-(oxazolo[4,5-b]pyridin-2-ylamino)-1H-benzo[d]imidazole-5-carboxylic acid]",3
10,"COCCONC(=O)c1ccc2c(c1)nc(Nc1nc3ccc(OC(F)(F)F)cc3o1)n2C [Example 127, N-(2-methoxyethoxy)-1-methyl-2-((6-(trifluoromethoxy)benzo[d]oxazol-2-yl)amino)-1H-benzo[d]imidazole-5-carboxamide]",27-36
11,"COCCNC(=O)c1ccc2c(c1)nc(Nc1nc3c(s1)COCC3)n2C [Example 11, 2-((6,7-dihydro-4H-pyrano[4,3-d]thiazol-2-yl)amino)-N-(2-methoxyethyl)-1-methyl-1H-benzo[d]imidazole-5-carboxamide]",5
12,"Cn1c(Nc2nc3ccccc3o2)nc2cc(C(=O)O)ccc21 [Example 1h, 2-(benzo[d]oxazol-2-ylamino)-1-methyl-1H-benzo[d]imidazole-5-carboxylic acid]",7-38
13,"COCCNC(=O)c1ccc2c(c1)nc(Nc1nc3cccnc3o1)n2C [Example 109, N-(2-methoxyethyl)-1-methyl-2-(oxazolo[5,4-b]pyridin-2-ylamino)-1H-benzo[d]imidazole-5-carboxamide]",26
14,"Cn1c(Nc2nc3ccc(C(F)(F)F)cc3o2)nc2cc(C(=O)NCCOCC(C)(C)O)ccc21 [Example 42, N-(2-(2-hydroxy-2-methylpropoxy)ethyl)-1-methyl-2-((6-(trifluoromethyl)benzo[d]oxazol-2-yl)amino)-1H-benzo[d]imidazole-5-carboxamide]",39
15,"Cn1c(Nc2nc3ccc(OCCO)cc3o2)nc2cc(C(=O)NOCCO)ccc21 [Example 129, N-(2-hydroxyethoxy)-2-((6-(2-hydroxyethoxy)benzo[d]oxazol-2-yl)amino)-1-methyl-1H-benzo[d]imidazole-5-carboxamide]",54-58
16,"Cn1c(Nc2nc3ccc(OCC(F)(F)F)cc3o2)nc2cc(C(=O)NCCO)ccc21 [Example 100, N-(2-hydroxyethyl)-1-methyl-2-((6-(2,2,2-trifluoroethoxy)benzo[d]oxazol-2-yl)amino)-1H-benzo[d]imidazole-5-carboxamide]",24-35
17,"COCCNC(=O)c1ccc2c(c1)nc(Nc1nc3cc(OC(F)(F)F)ccc3[nH]1)n2CCOC [Example 76, N,1-bis(2-methoxyethyl)-2-((5-(trifluoromethoxy)-1H-benzo[d]imidazol-2-yl)amino)-1H-benzo[d]imidazole-5-carboxamide]",18-20
18,"Cn1c(Nc2nc3cc(F)c(C(F)(F)F)cc3o2)nc2cc(C(=O)NCCO)ccc21 [Example 108, 2-((5-fluoro-6-(trifluoromethyl)benzo[d]oxazol-2-yl)amino)-N-(2-hydroxyethyl)-1-methyl-1H-benzo[d]imidazole-5-carboxamide]",29
19,"Cn1c(Nc2nc3ccccc3o2)nc2cc(C(=O)NCC(O)CO)ccc21 (stereo not drawn) [Example 24, 2-(benzo[d]oxazol-2-ylamino)-N-(2,3-dihydroxypropyl)-1-methyl-1H-benzo[d]imidazole-5-carboxamide]",49
20,"Cn1c(Nc2nc3ccc(OCC(F)(F)F)cc3o2)nc2cc(C(=O)O)ccc21 [Example 98, 1-methyl-2-((6-(2,2,2-trifluoroethoxy)benzo[d]oxazol-2-yl)amino)-1H-benzo[d]imidazole-5-carboxylic acid]",36-56
21,"Cn1c(Nc2nc3ccc(C(F)(F)F)cc3o2)nc2cc(C(=O)NCC(O)CO)ccc21 (stereo not drawn) [Example 39, N-(2,3-dihydroxypropyl)-1-methyl-2-((6-(trifluoromethyl)benzo[d]oxazol-2-yl)amino)-1H-benzo[d]imidazole-5-carboxamide]",56-82
